Data from patent US8546414B2, “Ion channel modulators and methods of use” (Vertex Pharmaceuticals Incorporated, priority 2004, dated 2013).
pIC50: −log10 of the molar value.

How the values were obtained:
NaV1.3 = target: T1, NaV1.3 (Homo sapiens, UniProt Q9NY46); experiment: VIPR optical membrane potential assay with electrical stimulation, NaV1.3; type: cell-based; details: Table 9, NaV 1.3 receptors
T1 construct: expressed in transfected cells; host or cells: HEK293
Experimental: (§1) Antagonist properties of test compounds were assessed as follows. Cells expressing the NaV of interest were placed into microtiter plates. After an incubation period, the cells were stained with fluorescent dyes sensitive to the transmembrane potential. The test compounds were added to the microtiter plate. The cells were stimulated with either chemical or electrical means to evoke a NaV dependent membrane potential change from unblocked channels, which was detected and measured with trans-membrane potential-sensitive dyes. Antagonists were detected as a decreased membrane potential response to the stimulus.
(§2) VIPR® Optical Membrane Potential Assay Method with Electrical Stimulation
The following is an example of how NaV1.3 inhibition activity is measured using the optical membrane potential method#2. Other subtypes are performed in an analogous mode in a cell line expressing the NaV of interest.
HEK293 cells stably expressing NaV1.3 are plated into 96-well microtiter plates. After an appropriate incubation period, the cells are stained with the voltage sensitive dyes CC2-DMPE/DiSBAC2(3) as follows.
(§3) 2X CC2-DMPE=20 μM CC2-DMPE: 10 mM CC2-DMPE is vortexed with an equivalent volume of 10% pluronic, followed by vortexing in required amount of HBSS containing 10 mM HEPES. Each cell plate will require 5 mL of 2×CC2-DMPE. 50 μL of 2×CC2-DMPE is added to wells containing washed cells, resulting in a 10 μM final staining concentration. The cells are stained for 30 minutes in the dark at RT.
2X DISBAC2(3) with ABSC1=6 μM DISBAC2(3) and 1 mM ABSC1: The required amount of 10 mM DISBAC2(3) is added to a 50 ml conical tube and mixed with 1 μL 10% pluronic for each mL of solution to be made and vortexed together. Then HBSS/HEPES is added to make up 2× solution. Finally, the ABSC1 is added.
The 2X DiSBAC2(3) solution can be used to solvate compound plates. Note that compound plates are made at 2× drug concentration. Wash stained plate again, leaving residual volume of 50 Add 50 μL/well of the 2X DiSBAC2(3) w/ABSC1. Stain for 30 minutes in the dark at RT.
(§4) The instrument comprises a microtiter plate handler, an optical system for exciting the coumarin dye while simultaneously recording the coumarin and oxonol emissions, a waveform generator, a current- or voltage-controlled amplifier, and a device for inserting electrodes in well. Under integrated computer control, this instrument passes user-programmed electrical stimulus protocols to cells within the wells of the microtiter plate.
• 1. Insert or use electrodes into each well to be assayed. • 2. Use the current-controlled amplifier to deliver stimulation wave pulses for 3 s. Two seconds of pre-stimulus recording are performed to obtain the un-stimulated intensities. Five seconds of post-stimulation recording are performed to examine the relaxation to the resting state. Data Analysis
(§5) Data are analyzed and reported as normalized ratios of background-subtracted emission intensities measured in the 460 nm and 580 nm channels. Background intensities are then subtracted from each assay channel. Background intensities are obtained by measuring the emission intensities during the same time periods from identically treated assay wells in which there are no cells. The response as a function of time is then reported as the ratios obtained using the following formula: […]
(§6) The data is further reduced by calculating the initial (Ri) and final (Rf) ratios. These are the average ratio values during part or all of the pre-stimulation period, and during sample points during the stimulation period. The response to the stimulus R=Rf/Ri is then calculated.
Control responses are obtained by performing assays in the presence of a compound with the desired properties (positive control), such as tetracaine, and in the absence of pharmacological agents (negative control). Responses to the negative (N) and positive (P) controls are calculated as above. The compound antagonist activity A is defined as: […]

CaV2.2 = target: T2, CaV2.2 (Homo sapiens, UniProt Q00975); experiment: VIPR optical membrane potential assay with electrical stimulation, CaV2.2; type: cell-based; details: Table 9, CaV 2.2 receptors
T2 construct: expressed in transfected cells; host or cells: HEK293
Experimental: A. Optical Methods for Assaying CaV Inhibition Properties of Compounds:
as §1, with “CaV” for “NaV”, “with” for “with either chemical or”
as §2
The following is an example of how CaV2.2 inhibition activity is measured using the optical membrane potential method. Other subtypes are performed in an analogous mode in a cell line expressing the CaV of interest.
HEK293 cells stably expressing CaV2.2 are plated into 96-well microtiter plates. After an appropriate incubation period, the cells are stained with the voltage sensitive dyes CC2-DMPE/DiSBAC2(3) as follows.
as §3, with “Pluronic,” for “pluronic,”
Vortex in required amount of Bath X with beta-cyclodextrin. Each 96 well cell plate will require 5 ml of 2XCC2DMPE. Wash plate with ELx405 with Bath X, leaving a residual volume of 50 μL/well. Add 50 μL of 2XCC2DMPE & […] to each well. Stain for 30 minutes in the dark at RT.
Allow solution to sit for 10 minutes. Slowly mix in 370 mM BaCl2. This solution can be used to solvate compound plates. Note that compound plates are made at 1.5× drug concentration and not the usual 2X. Wash CC2 stained plate, again, leaving residual volume of 50 μL. Add 100 uL/well of the AY17 solution. Stain for 15 minutes in the dark at RT. Run plate on the optical reader.
as §4
Insert or use electrodes into each well to be assayed.
Use the current-controlled amplifier to deliver stimulation wave pulses for 3-5 s. Two seconds of pre-stimulus recording are performed to obtain the un-stimulated intensities. Five seconds of post-stimulation recording are performed to examine the relaxation to the resting state.
as §5, §6
Control responses are obtained by performing assays in the presence of a compound with the desired properties (positive control), such as mibefradil, and in the absence of pharmacological agents (negative control).

T1 sequence (Q9NY46 whole entry): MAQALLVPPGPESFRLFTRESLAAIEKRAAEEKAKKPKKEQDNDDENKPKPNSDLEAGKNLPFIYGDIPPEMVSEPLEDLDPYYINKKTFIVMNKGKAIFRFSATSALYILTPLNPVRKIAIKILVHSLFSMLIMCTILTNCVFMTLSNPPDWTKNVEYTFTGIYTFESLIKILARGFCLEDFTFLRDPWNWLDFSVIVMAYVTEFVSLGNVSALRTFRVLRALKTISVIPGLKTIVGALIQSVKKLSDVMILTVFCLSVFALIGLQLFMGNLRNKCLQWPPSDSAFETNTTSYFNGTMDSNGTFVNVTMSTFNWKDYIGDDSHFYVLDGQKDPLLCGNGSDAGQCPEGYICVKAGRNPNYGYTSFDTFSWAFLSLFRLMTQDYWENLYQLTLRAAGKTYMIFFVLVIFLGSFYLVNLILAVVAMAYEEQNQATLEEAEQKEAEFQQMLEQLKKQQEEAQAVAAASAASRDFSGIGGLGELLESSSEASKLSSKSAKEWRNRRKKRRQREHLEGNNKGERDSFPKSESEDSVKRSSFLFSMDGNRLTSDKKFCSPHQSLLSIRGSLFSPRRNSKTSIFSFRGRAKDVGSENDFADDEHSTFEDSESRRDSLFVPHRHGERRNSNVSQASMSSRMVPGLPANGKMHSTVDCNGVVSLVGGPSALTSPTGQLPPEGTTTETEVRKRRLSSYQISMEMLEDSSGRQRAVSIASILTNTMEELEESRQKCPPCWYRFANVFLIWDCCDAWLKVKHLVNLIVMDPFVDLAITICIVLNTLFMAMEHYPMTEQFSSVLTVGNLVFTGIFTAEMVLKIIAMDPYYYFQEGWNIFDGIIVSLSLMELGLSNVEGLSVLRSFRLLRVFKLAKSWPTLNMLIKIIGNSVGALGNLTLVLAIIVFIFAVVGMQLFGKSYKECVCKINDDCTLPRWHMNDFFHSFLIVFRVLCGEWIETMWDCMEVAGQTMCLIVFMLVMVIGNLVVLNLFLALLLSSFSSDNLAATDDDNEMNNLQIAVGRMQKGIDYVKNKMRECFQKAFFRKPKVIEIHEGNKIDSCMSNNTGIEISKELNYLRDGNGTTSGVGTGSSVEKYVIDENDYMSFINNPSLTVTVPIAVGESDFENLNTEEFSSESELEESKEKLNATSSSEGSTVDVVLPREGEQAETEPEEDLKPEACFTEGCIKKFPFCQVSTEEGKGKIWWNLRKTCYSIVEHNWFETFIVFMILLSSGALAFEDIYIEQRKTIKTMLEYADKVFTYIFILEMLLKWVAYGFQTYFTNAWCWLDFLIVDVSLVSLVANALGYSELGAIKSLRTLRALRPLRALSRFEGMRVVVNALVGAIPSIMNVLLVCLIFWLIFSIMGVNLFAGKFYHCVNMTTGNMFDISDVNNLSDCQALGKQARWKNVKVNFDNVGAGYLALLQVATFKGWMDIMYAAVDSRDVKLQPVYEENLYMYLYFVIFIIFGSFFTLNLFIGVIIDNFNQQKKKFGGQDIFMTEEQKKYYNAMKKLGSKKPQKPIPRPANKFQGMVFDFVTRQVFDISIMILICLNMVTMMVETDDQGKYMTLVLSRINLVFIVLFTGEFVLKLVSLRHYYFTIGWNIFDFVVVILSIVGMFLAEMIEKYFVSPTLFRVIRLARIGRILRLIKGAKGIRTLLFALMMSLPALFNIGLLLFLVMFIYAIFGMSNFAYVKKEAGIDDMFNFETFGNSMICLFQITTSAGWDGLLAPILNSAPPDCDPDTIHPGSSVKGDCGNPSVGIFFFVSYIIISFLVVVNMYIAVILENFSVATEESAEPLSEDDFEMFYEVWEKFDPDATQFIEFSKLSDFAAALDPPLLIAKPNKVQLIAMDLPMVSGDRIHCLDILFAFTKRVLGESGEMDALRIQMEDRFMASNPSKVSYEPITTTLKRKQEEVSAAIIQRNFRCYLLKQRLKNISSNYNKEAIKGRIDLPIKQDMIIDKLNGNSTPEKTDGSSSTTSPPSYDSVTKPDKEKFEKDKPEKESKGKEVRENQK

Row | pIC50 (NaV1.3) | pIC50 (CaV2.2) | SMILES
1 | < 5.00 | < 5.00 | COCCCNc1ncc(C(=O)N(C)C2CCCCC2)c(-c2ccc(C#N)cc2)n1 [compound 303]
2 | < 5.00 | < 5.00 | CC1CC(C)CN(C(=O)c2cnc(N3CCOCC3)nc2-c2ccccc2F)C1 (centres unmarked) [compound 279]
3 | < 5.00 | < 5.00 | COCCCNC(=O)c1cnc(NCCc2ccc(OC)cc2)nc1-c1cccc(C)c1 [compound 258]
4 | < 5.00 | < 5.00 | COc1cccc(OC)c1CNc1ncc(C(=O)N(C)C2CCCCC2)c(-c2ccc(C#N)cc2)n1 [compound 280]
5 | < 5.00 | 5.00 to 5.70 | CCC1CCC(C)N(C(=O)c2cnc(NCCc3ccc(OC)cc3)nc2-c2ccc(C#N)cc2)C1 (centres unmarked) [compound 329]
6 | < 5.00 | < 5.00 | CC(C)CN(C)C(=O)c1cnc(N2CCCC2)nc1-c1ccccc1F [compound 270]
7 | < 5.00 | < 5.00 | CCN(Cc1ccccc1)C(=O)c1cnc(N2CCOCC2)nc1-c1cccc(C)c1 [compound 243]
8 | < 5.00 | < 5.00 | CC1CC(C)CN(C(=O)c2cnc(NCc3cccc(Cl)c3)nc2-c2ccc(C#N)cc2)C1 (centres unmarked) [compound 238]
9 | < 5.00 | < 5.00 | O=C(NCc1ccccc1)c1cnc(NCCc2cccc(F)c2)nc1-c1ccccc1F [compound 224]
10 | < 5.00 | < 5.00 | COCCNc1ncc(C(=O)N2CC(C)CC(C)C2)c(-c2cccc(C)c2)n1 (centres unmarked) [compound 325]
11 | < 5.00 | < 5.00 | CCN(C)c1ncc(C(=O)NCCCOC)c(-c2cccc(C)c2)n1 [compound 223]
12 | < 5.00 | < 5.00 | CCC(C)NC(=O)c1cnc(NC2CCCCC2)nc1-c1ccc(C#N)cc1 (centres unmarked) [compound 309]
13 | < 5.00 | < 5.00 | Cc1cccc(-c2nc(NCc3ccccc3)ncc2C(=O)N2CCOCC2)c1 [compound 304]
14 | < 5.00 | < 5.00 | CCN(Cc1ccccc1)C(=O)c1cnc(N2CCCC(C(N)=O)C2)nc1-c1ccccc1F (centres unmarked) [compound 289]
15 | < 5.00 | < 5.00 | COc1ccc(CCN(C)c2ncc(C(=O)N3CC(C)CC(C)C3)c(-c3ccc(C#N)cc3)n2)cc1OC (centres unmarked) [compound 285]
16 | < 5.00 | < 5.00 | Cc1cccc(-c2nc(NCC3CCCCC3)ncc2C(=O)N2CCOCC2)c1 [compound 306]
17 | < 5.00 | < 5.00 | COCCCNc1ncc(C(=O)NCC2CC2)c(-c2ccc(C#N)cc2)n1 [compound 231]
18 | < 5.00 | < 5.00 | Cc1cccc(-c2nc(NCc3cccc(Cl)c3)ncc2C(=O)N(C)CC(C)C)c1 [compound 235]

Row | pIC50 (NaV1.3) | pIC50 (CaV2.2) | SMILES
19 | < 5.00 | < 5.00 | CCCCNC(=O)c1cnc(N2CCOCC2)nc1-c1ccccc1F [compound 233]
20 | < 5.00 | < 5.00 | COc1ccc(CCN(C)c2ncc(C(=O)N3CCCC3)c(-c3ccc(C#N)cc3)n2)cc1OC [compound 292]
21 | < 5.00 | < 5.00 | CCN(C)c1ncc(C(=O)N2CC(C)CC(C)C2)c(-c2ccc(C#N)cc2)n1 (centres unmarked) [compound 347]
22 | < 5.00 | < 5.00 | COc1ccc(CCNc2ncc(C(=O)N3CCC(C)CC3)c(-c3ccc(C#N)cc3)n2)cc1 [compound 316]
23 | < 5.00 | < 5.00 | CCN(Cc1ccccc1)C(=O)c1cnc(N2CCCC2)nc1-c1ccc(C#N)cc1 [compound 340]
24 | < 5.00 | < 5.00 | CCC1CCC(C)N(C(=O)c2cnc(NCCCOC)nc2-c2ccc(C#N)cc2)C1 (centres unmarked) [compound 294]
25 | < 5.00 | < 5.00 | O=C(c1cnc(N2CCOCC2)nc1-c1ccccc1F)N1CCCCC1 [compound 323]
26 | < 5.00 | < 5.00 | COCCCNC(=O)c1cnc(N2CCN(C(C)=O)CC2)nc1-c1cccc(C)c1 [compound 339]
27 | < 5.00 | < 5.00 | O=C(c1cnc(NCc2ccccc2C(F)(F)F)nc1-c1ccccc1F)N1CCOCC1 [compound 252]
28 | < 5.00 | < 5.00 | COCCCNc1ncc(C(=O)NCC2CCCCC2)c(-c2cccc(C)c2)n1 [compound 330]
29 | < 5.00 | < 5.00 | COCCCNc1ncc(C(=O)N2CCCCC2)c(-c2cccc(C)c2)n1 [compound 274]
30 | < 5.00 | < 5.00 | CC(=O)N1CCN(c2ncc(C(=O)N3CCOCC3)c(-c3cccc(C)c3)n2)CC1 [compound 226]
31 | < 5.00 | < 5.00 | N#Cc1ccc(-c2nc(NCc3ccc4c(c3)OCO4)ncc2C(=O)N2CCCC2)cc1 [compound 260]
32 | < 5.00 | < 5.00 | COCCCNc1ncc(C(=O)N(Cc2ccccc2)C(C)C)c(-c2ccccc2F)n1 [compound 296]
33 | < 5.00 | < 5.00 | CC(=O)N1CCN(c2ncc(C(=O)N(Cc3ccccc3)C(C)C)c(-c3ccccc3F)n2)CC1 [compound 216]
34 | < 5.00 | < 5.00 | CCN(C)c1ncc(C(=O)NCCOC)c(-c2ccc(C#N)cc2)n1 [compound 314]
35 | < 5.00 | < 5.00 | Cc1cccc(-c2nc(NCc3ccc4c(c3)OCO4)ncc2C(=O)N2CCOCC2)c1 [compound 264]

Row | SMILES | pIC50 (NaV1.3) | pIC50 (CaV2.2)
36 | O=C(c1cnc(N2CCOCC2)nc1-c1ccc(-c2ccccc2)cc1)N1CCCCC1 [compound 229] | < 5.00 | < 5.00
37 | Cc1cccc(-c2nc(NC3CC4CC(C3C)C4(C)C)ncc2C(=O)N2CCOCC2)c1 (centres unmarked) [compound 288] | < 5.00 | < 5.00
38 | O=C(c1cnc(NCC2CCCCC2)nc1-c1ccccc1F)N1CCOCC1 [compound 351] | < 5.00 | < 5.00
39 | CCN(C)c1ncc(C(=O)N2CCC(C)CC2)c(-c2cccc(C)c2)n1 [compound 343] | < 5.00 | < 5.00
40 | N#Cc1ccc(-c2nc(NCc3ccccc3C(F)(F)F)ncc2C(=O)NCC2CC2)cc1 [compound 248] | < 5.00 | < 5.00
